Measured values as given in patent US20080280833A1, “Therapeutic Peptides Derived from Urokinase Plasminogen Activator Receptor” (priority 2005, published 2008).

How the values were obtained:
[1] = system: human HT1080 fibrosarcoma cells; assay: Matrigel invasion assay; type: cell-based; settings: substance alone, 24 hours at 37° C.
[2] = system: RSMC; assay: Immunofluorescence microscopy, actin cytoskeleton and cell morphology; type: cell-based, rat; settings: 30 minutes at 37° C., peptide 1 pM or VN 1 μg/ml
Protocol: (§1) As previously described (Degryse et al., 1999; 2004) 15,000-25,000 cells (20-40% confluence), were seeded on glass coverslips in 2 cm^2 well, cultured for 24 hours in DMEM plus 10% FCS, washed with PBS and cultured for another 24 hours without FCS. After stimulation, RSMC were fixed for 20 min at RT with 3% paraformaldehyde, 2% sucrose in PBS pH 7.5, washed 3 times with PBS-BSA 0.2%, permeabilized with 20 mM hepes pH 7.4, 300 mM saccharose, 50 mM NaCl, 3 mM MgCl2, 0.5% (v/v) Triton X-100 for 3 min at 4° C., and washed 3 times with PBS-BSA 0.2%. RSMC were incubated in PBS-BSA 2% for 15 min at 37° C., then with anti-Stat1 primary antibodies for 30 min at 37° C., washed 3 times with PBS-BSA 0.2%, and further incubated with PBS-BSA 2% for 15 min at 37° C. Cells were stained with the secondary TRITC-antibody and with FITC-phalloidin for visualization of filamentous actin, for 30 min at 37° C. DAPI (4′,6-diamidino-2-phenylindole, Roche) was used to label the nucleus. Finally, after 3 washes with PBS-BSA 0.2%, one with distilled water, coverslips were mounted with 20% (w/v) Mowiol. Fluorescence Photographs were taken with a Zeiss Axiophot microscope

[3] = system: LB6 clone 19 cells; assay: Chemotaxis assay, LB6 clone 19 cells (wild-type human uPAR); type: cell-based, mouse; settings: VN 5 μg/ml
Protocol: (§2) Chemotaxis assay was performed as described (Degryse et al., 1999, 2001a, 2001b) with modified Boyden chambers. Filters (5 μm pore size, Neuro Probe, Gaithersburg, Md.) were treated with collagen I (100 μg/ml) and fibronectin (10 μg/ml, Roche).≈40-50,000 cells in serum-free DMEM were added to the upper well and the chemoattractants tested added to the lower well. When present, antibodies, or inhibitors were added in both wells. After overnight migration at 37° C., cells remaining on the upper surface of filters were scraped off and filters were fixed in methanol and stained in a solution of 10% (w/v) crystal violet in 20% (v/v) methanol. The experiments were performed at least twice in triplicate and the results, expressed as fold over control, are the mean ±SD of the number of cells counted in ten high power fields per filter. Random cell migration, i.e. migration in the absence of chemoattractant, was given the arbitrary value of 100%.

[4] = system: LB6-D1HD3 cells; assay: Chemotaxis assay, LB6-D1HD3 cells (uPAR lacking domain 2); type: cell-based, mouse
Protocol: as §2

[5] = system: Stat1; assay: Immunofluorescence microscopy, Stat1 distribution; type: cell-based, rat; settings: RSMC, 30 minutes at 37° C., peptide 1 pM or VN 1 μg/ml
Protocol: as §1
To quantify the activation of Stat1, random pictures were taken and nuclei positively stained for Stat1 were counted and expressed in percent.

[6] = system: NIH 3T3 cells; assay: Chemotaxis assay, NIH 3T3 cells; type: cell-based, mouse; settings: NIH 3T3, VN 1 μg/ml
Protocol: as §2

[7] = system: LB6-D1D2 cells; assay: Chemotaxis assay, LB6-D1D2 cells (uPAR lacking domain 3); type: cell-based, mouse
Protocol: as §2

[8] = system: LB6-D1HD3 cells; assay: 125I-VN cell binding, LB6-D1HD3; parameters: species or system mouse; settings: 125I-VN 0.5 nM, on ice 90 minutes
Protocol: (§3) VN was iodinated using Iodogen (Pierce Chemical Co.) at a specific activity of 30-60×10^6 cpm/mg. Briefly, 10 μg of VN dissolved in 0.1 M tris pH 7.6, 0.1% (v/v) Tween 80, were incubated with 0.5 μCi ^125Iodine for 15 minutes at room temperature, in a volume of 100 μl. The reaction was stopped by adding 1 ml of stop/elution buffer, 0.1 M tris pH 8.1, 0.1% (v/v) Chaps and 50 μl of N-acetyl tyrosine (10 mg/ml in 0.1 M tris pH 7.4). Labeled VN was separated from unbound ^125Iodine by gel chromatography in PD-10 column (Pharmacia) in the stop/elution buffer.
(§4) Cells were seeded in 96-well culture dishes treated overnight with 1.5% gelatin in PBS pH 7.4, grown to confluence in DMEM plus 10% FCS, then serum-starved for 24 hours in DMEM. Total binding was determined by incubating the cells on ice for 90 minutes in binding buffer (DMEM containing 0.1% (w/v) BSA and 10 mM Hepes pH 7.4) plus 0.5 nM ^125I-VN. Nonspecific binding was measured by competition with a 100 fold excess of unlabeled VN. At the end of the incubation time, the cells were washed 3 times with ice-cold binding buffer and once with ice-cold PBS, then lysed in a solution of 1% SDS, 1% Triton X-100 and the associated radioactivity counted. Cell number was determined in 6 wells per lines cultured in parallel, and the results were standardized as cpm/10^5 cells.

[9] = system: HEK-293-uPAR cells; assay: Chemotaxis assay, HEK-293-uPAR cells; type: cell-based, human
Protocol: as §2

[10] = system: LB6-D1D2 cells; assay: 125I-VN cell binding, LB6-D1D2; parameters: species or system mouse; settings: 125I-VN 0.5 nM, on ice 90 minutes
Protocol: as §3, §4

[11] = system: LB6 cells; assay: Chemotaxis assay, modified Boyden chambers, LB6 cells; type: cell-based, mouse
Protocol: as §2

[12] = system: HEK-293 cells; assay: Chemotaxis assay, HEK-293 cells; type: cell-based, human; settings: HEK-293, VN 1 μg/ml
Protocol: as §2

[13] = system: NIH 3T3-uPAR cells; assay: Chemotaxis assay, NIH 3T3-uPAR cells; type: cell-based, mouse; settings: VN 1 μg/ml
Protocol: as §2

[14] = system: LB6 clone 19 cells; assay: 125I-VN cell binding, LB6 clone 19; parameters: species or system mouse; settings: 125I-VN 0.5 nM, on ice 90 minutes
Protocol: as §3, §4

[15] = system: NIH 3T3-D1HD3 cells; assay: Chemotaxis assay, NIH 3T3-D1HD3 cells; type: cell-based, mouse
Protocol: as §2

## VN: vitronectin purified from human plasma
[1]
  stimulation of Matrigel invasiveness of HT1080 cells: stimulate
[2]
  cell morphology and actin cytoskeleton organization: induced similar changes
[3]; LB6 clone 19, wild-type uPAR
  VN-dependent cell migration: 906 ± 22.8 % of control
[3]
  enhancement of VN-directed cell migration of LB6 clone 19 compared to untransfected LB6 cells: 3.3 fold
[4]; LB6-D1HD3, VN 5 μg/ml
  VN-dependent cell migration: 102 ± 5.0 % of control
[4]; LB6 cells transfected with D1HD3-uPAR, even at 10 μg/ml
  stimulation of chemotaxis: failed to stimulate
[5]
  Stat1 activation and translocation into the nucleus: reproduced this effect on Stat1 localization
[6]
  VN-dependent cell migration: 222.7 ± 4.8 % of control
[7]; LB6-D1D2, VN 5 μg/ml
  VN-dependent cell migration: 280 ± 6.0 % of control
[7]; LB6-D1D2 cells, at 1 μg/ml
  maximal stimulation of chemotaxis: about four-fold
[8]
  VN binding to cells: poorly
[9]
  chemotactic effect of VN in HEK-293-uPAR relative to untransfected HEK-293 cells: 2 fold
[9]; HEK-293-uPAR, VN 1 μg/ml
  VN-dependent cell migration: 394.3 % of control
  cell migration: 417.25 ± 4.64 % of control
[10]
  VN binding to cells: poorly
[11]; LB6 cells, VN 5 μg/ml
  VN-dependent cell migration: 274 ± 3.8 % of control
[11]; untransfected parental LB6 cells
  stimulation of chemotaxis: 2.5 fold
[12]
  VN-dependent cell migration: 199.1 % of control
  cell migration: 210.84 ± 26.95 % of control
[13]
  VN-dependent cell migration: 397 ± 11.1 % of control
[14]
  VN binding to cells: bound
[15]; NIH 3T3-D1HD3, VN 1 μg/ml
  VN-dependent cell migration: 100 ± 4.0 % of control
[15]; NIH3T3 cells transfected with D1HD3-uPAR, even at 10 μg/ml
  stimulation of chemotaxis: failed to stimulate
